Laboratory results taken from patent US4517003A, “N-acyl phosphoric triamide urease inhibitors and urease inhibited urea based fertilizer compositions” (Allied Corporation, priority 1983, dated 1985).
Like-named read-outs stand apart in the source and are kept apart here.

What was measured:
soil nitrification = assay: Nitrification inhibition efficacy test in soil; conditions: Cazenovia silt loam pH 7.3, 14 days at 25° C.; for % Inhibition at 40 ug per gram of soil, t14 (Inhibition of Soil Nitrification): diammonium phosphate applied after 14 days (t14); for % Inhibition at 40 ug per gram of soil, t0 (Inhibition of Soil Nitrification): diammonium phosphate applied simultaneously (t0)
Experimental: Efficacy tests were conducted to evaluate the efficacy of certain representative phosphoric triamide compounds as nitrification inhibitors. All compounds were evaluated in Cazenovia silt loam soil (pH 7.3). The evaluations consisted of applying either simultaneously (to) or after 14 days (t14) a solution of 6.00 mg (300 ug/g soil) of diammonium phosphate in 1 mL of water to triplicate 20 g samples of air dry soil contained in 250 mL square glass bottles that had been treated with a solution of either 0 or 0.800 mg (40 ug/g soil) of the test compound in 5 mL of water. Each bottle was capped with perforated aluminum foil, incubated for 14 days at 25° C. after diammonium phosphate application, and then extracted with 100 mL of 2M potassium chloride containing 0.5 mg (5 mg/L) of phenylmercuric acetate. Each extract was allowed to settle, and an aliquot was frozen and then analyzed for nitrate using an autoanalyzer. The percent inhibition obtained during the incubation was calculated by the formula: [formula] where A is the nitrate recovered from unincubated soil before diammonium phosphate addition; B is nitrate recovered from uninhibited soil; and C is nitrate recovered from inhibited soil.
The compounds selected for use in the composition of this invention are N-(diaminophosphinyl)-2,2,2-trichloroacetamide, N-(diaminophosphinyl)-2,2-dichloroacetamide, and N-(diaminophosphinyl)-2-chloroacetamide.

[1] = Solubility in ice-cold water (observation during work-up); assay type: physicochemical
Experimental: The titled compound was prepared in accordance with the procedure of Example I. Using 2-chloroacetamide (7.02 g, 75 mmol), phosphorus pentachloride (15.6 g, 75 mmol) and formic acid (2.9 mL, […]), were reacted to form 16.0 g of N-(dichlorophosphinyl)-2-chloroacetamide, which was reacted with anhydrous ammonia in ether to form N-(diaminophosphinyl)-2-chloroacetamide.

soil urease = assay: Urease inhibition efficacy test in soil; assay type: biochemical; conditions: Cazenovia silt loam, pH 7.2, incubated at 25° C. for three days, triplicate
Experimental: Efficacy tests were conducted to evaluate the efficacy of certain representative phosphoric triamide compounds as urease inhibitors. The inhibition tests were run in a New York soil (Cazenovia silt loam, pH 7.2). […] The bottle was capped with perforated aluminum foil and incubated at 25° C. for three days prior to extraction with 100 mL of a 2M KCl solution containing 0.5 mg of phenylmercuric acetate. The extracts were then analyzed for remaining urea using an autoanalyzer. Percent inhibition was calculated as [formula] Where A is urea recovered from unincubated sample (urea added to soil and immediately extracted); B is urea recovered from inhibited sample; and C is urea recovered from the control (uninhibited sample).

[2] = target: T1, jack bean urease (Sigma, Type IX) (Canavalia ensiformis, UniProt P07374); assay: Jack bean urease inhibition (modified Bremner procedure, homogeneous solution); assay type: biochemical; conditions: for inhibition at 0.01 µM: read-out: % Inhibition at Specific Inhibitor Concentrations 10^-8 M
T1 construct: purchased Sigma Type IX
Experimental: Efficacy tests were also conducted with jack bean urease. The procedure of Bremner (see L. A. Douglas and J. M. Bremner, Soil Biol. Biochem., 3, 859-62 (1970) and references therein) was modified by replacing the soil as the source of urease with commercial purified jack bean urease (Sigma, Type IX). The incubation then proceeds in homogeneous solution.
The prior art compound selected for comparative testing was N-(diaminophosphinyl)-p-chlorobenzamide, and the compounds selected for use in the composition of this invention are N-(diaminophosphinyl)-2,2,2-trichloroacetamide, N-(diaminophosphinyl)-2,2-dichloroacetamide, and N-(diaminophosphinyl)-2-chloroacetamide The test procedure employed was identical to that used in Example VII.

[3] = Table II, 10^-6 M inhibitor, jack bean urease, read-out: % Inhibition at Specific Inhibitor Concentration 10^-6 M
[4] = Table II, 10^-7 M inhibitor, jack bean urease, read-out: % Inhibition at Specific Inhibitor Concentration 10^-7 M
[5] = Table III (comparison with prior art), 10^-6 M inhibitor, jack bean urease, read-out: % Inhibition at Specific Inhibitor Concentrations 10^-6 M
[6] = Table III (comparison with prior art), 10^-7 M inhibitor, jack bean urease, read-out: % Inhibition at Specific Inhibitor Concentrations 10^-7 M

T1 sequence (P07374 whole entry, looked up): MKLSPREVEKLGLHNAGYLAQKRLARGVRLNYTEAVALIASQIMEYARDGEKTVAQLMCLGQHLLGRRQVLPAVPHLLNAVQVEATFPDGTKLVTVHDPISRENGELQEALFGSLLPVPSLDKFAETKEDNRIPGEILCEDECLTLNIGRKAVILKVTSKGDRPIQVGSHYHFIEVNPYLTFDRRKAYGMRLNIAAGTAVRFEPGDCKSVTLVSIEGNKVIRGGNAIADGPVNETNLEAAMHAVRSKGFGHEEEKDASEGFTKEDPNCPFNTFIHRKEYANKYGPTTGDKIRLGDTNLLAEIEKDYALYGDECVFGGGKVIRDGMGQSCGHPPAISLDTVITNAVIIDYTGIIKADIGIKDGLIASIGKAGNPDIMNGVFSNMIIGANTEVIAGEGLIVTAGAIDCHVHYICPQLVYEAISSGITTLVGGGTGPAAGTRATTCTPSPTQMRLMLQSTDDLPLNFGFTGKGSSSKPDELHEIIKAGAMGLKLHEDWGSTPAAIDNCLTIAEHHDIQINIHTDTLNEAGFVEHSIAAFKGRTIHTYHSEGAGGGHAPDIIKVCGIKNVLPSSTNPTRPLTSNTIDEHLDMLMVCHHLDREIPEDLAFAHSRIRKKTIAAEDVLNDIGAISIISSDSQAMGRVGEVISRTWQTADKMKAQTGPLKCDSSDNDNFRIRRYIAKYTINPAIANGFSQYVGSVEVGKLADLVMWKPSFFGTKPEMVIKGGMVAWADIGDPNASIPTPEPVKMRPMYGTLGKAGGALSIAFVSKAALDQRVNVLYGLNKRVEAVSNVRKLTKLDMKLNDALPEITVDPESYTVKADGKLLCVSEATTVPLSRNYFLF

SMILES | % Inhibition at 40 ug per gram of soil, t14 (Inhibition of Soil Nitrification) (soil nitrification) [%] | % Inhibition at 40 ug per gram of soil, t0 (Inhibition of Soil Nitrification) (soil nitrification) [%] | Solubility in water [1] | % Inhibition at 40 ug per gram of soil (Inhibition of Soil Urease) (soil urease) [%] | inhibition at 1 µM [2, 3] [%] | inhibition at 0.1 µM [2, 4] [%] | inhibition at 1 µM [2, 5] [%] | inhibition at 0.1 µM [2, 6] [%] | inhibition at 1 µM ([2]; read-out: % Inhibition at Specific Inhibitor Concentrations 10^-6 M) [%] | inhibition at 0.1 µM ([2]; read-out: % Inhibition at Specific Inhibitor Concentrations 10^-7 M) [%] | inhibition at 0.01 µM [2] [%] | inhibition at 0.01 µM ([2]; Table III (comparison with prior art), 10^-8 M inhibitor, jack bean urease) [%]
NP(N)(=O)NC(=O)CCl [Example II, N-(Diaminophosphinyl)-2-chloroacetamide] | 0 | 2 | very soluble even in ice-cold water | 83 | 100 | 81 | 100 | 50 | – | – | – | –
COc1ccc(C(=O)NP(N)(N)=O)cc1 [N-(Diaminophosphinyl)-4-methoxybenzamide, N-(diaminophosphinyl)-4-methoxybenzamide, reference compound] | 13 | 4 | – | – | – | – | – | – | – | – | – | –
NP(N)(=O)NC(=O)c1ccc(Cl)cc1 [N-(Diaminophosphinyl)-p-chlorobenzamide, N-(diaminophosphinyl)-p-chlorobenzamide, reference compound] | – | – | – | – | – | – | – | – | 83 | 20 | 14 | –
NP(N)(=O)NC(=O)C(Cl)Cl [Example I, N-(Diaminophosphinyl)-2,2-dichloroacetamide] | 9 | 18 | – | 73 | 100 | 80 to 100 | 100 | 100 | – | – | – | –
NP(N)(=O)NC(=O)C(F)(F)F [IV, N-(Diaminophosphinyl)-2,2,2-trifluoroacetamide] | – | – | – | 52 | 100 | 22 | – | – | – | – | – | –
NP(N)(=O)NC(=O)C(Cl)(Cl)Cl [Example III, N-(Diaminophosphinyl)-2,2,2-trichloroacetamide] | 3 | 47 | – | 64 | 93 to 100 | 70 | – | 78 | – | – | – | 13
N#CCC(=O)NP(N)(N)=O [Example V, N-(Diaminophosphinyl)-2-Cyanoacetamide] | – | – | – | – | 56 | – | – | – | – | – | – | –
